Test results as given in PubChem BioAssay AID248 (DTP/NCI, 2004).
Where “and” joins values, the source holds several entries; their conditions need not be identical. Equal values may be shown once. Toxic doses and inconclusive results are not listed. Rule as the data show it: active = T/C of 150% or more; inactive = T/C below 125%.

Test system: L1210 leukemia ip in BDF1 mice, survival T/C
Test: NCI In Vivo Anticancer Drug Screen. Data for tumor model L1210 Leukemia (intraperitoneal) in B6D2F1 (BDF1) mice
Details: endpoint: mean survival time, higher = longer survival
Method in brief: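 Antitumor effect is assessed in tumor-bearing animals. Survival in the compound arm is compared with a vehicle-dosed control arm and expressed as their quotient.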

[1] = dose: 100.0 mg/kg/injection, schedule: Q01DX009 (ip), vehicle: Klucel (hydroxypropylcellulose) (HPC)
[2] = dose: 200.0 mg/kg/injection, schedule: Q01DX009 (ip), vehicle: Klucel (hydroxypropylcellulose) (HPC)
[3] = dose: 400.0 mg/kg/injection, schedule: Q01DX009 (ip), vehicle: Klucel (hydroxypropylcellulose) (HPC)
[4] = dose: 100.0 mg/kg/injection, schedule: Q01DX001 (ip), vehicle: carboxymethylcellulose (CMC)
[5] = dose: 200.0 mg/kg/injection, schedule: Q01DX001 (ip), vehicle: carboxymethylcellulose (CMC)
[6] = dose: 400.0 mg/kg/injection, schedule: Q01DX001 (ip), vehicle: carboxymethylcellulose (CMC)
[7] = dose: 100.0 mg/kg/injection, schedule: Q04DX002 (ip), vehicle: saline with Tween-80
[8] = dose: 200.0 mg/kg/injection, schedule: Q04DX002 (ip), vehicle: saline with Tween-80
[9] = dose: 400.0 mg/kg/injection, schedule: Q04DX002 (ip), vehicle: saline with Tween-80
[10] = dose: 100.0 mg/kg/injection, schedule: Q04DX002 (ip), vehicle: Klucel (hydroxypropylcellulose) (HPC)
[11] = dose: 200.0 mg/kg/injection, schedule: Q04DX002 (ip), vehicle: Klucel (hydroxypropylcellulose) (HPC)
[12] = dose: 400.0 mg/kg/injection, schedule: Q04DX002 (ip), vehicle: Klucel (hydroxypropylcellulose) (HPC)
[13] = dose: 100.0 mg/kg/injection, schedule: Q01DX001 (ip), vehicle: saline
[14] = dose: 200.0 mg/kg/injection, schedule: Q01DX001 (ip), vehicle: saline
[15] = dose: 400.0 mg/kg/injection, schedule: Q01DX001 (ip), vehicle: saline
[16] = dose: 100.0 mg/kg/injection, schedule: Q01DX009 (ip), vehicle: saline
[17] = dose: 100.0 mg/kg/injection, schedule: Q04DX003 (ip), vehicle: saline
[18] = dose: 200.0 mg/kg/injection, schedule: Q01DX009 (ip), vehicle: saline
[19] = dose: 200.0 mg/kg/injection, schedule: Q04DX003 (ip), vehicle: saline
[20] = dose: 400.0 mg/kg/injection, schedule: Q01DX009 (ip), vehicle: saline
[21] = dose: 400.0 mg/kg/injection, schedule: Q04DX003 (ip), vehicle: saline

Measured: T/C

CCCCCCCCC(=O)N1CCOCC1
inactive: dose: 4.68 mg/kg/injection, schedule: Q01DX009 (ip), vehicle: saline 97 % of control | dose: 9.37 mg/kg/injection, schedule: Q01DX009 (ip), vehicle: saline 97 % of control | dose: 12.5 mg/kg/injection, schedule: Q04DX003 (ip), vehicle: Klucel (hydroxypropylcellulose) (HPC) 99 % of control | dose: 18.75 mg/kg/injection, schedule: Q01DX009 (ip), vehicle: saline 97 % of control | dose: 25.0 mg/kg/injection, schedule: Q01DX009 (ip), vehicle: Klucel (hydroxypropylcellulose) (HPC) 104 % of control | dose: 25.0 mg/kg/injection, schedule: Q04DX003 (ip), vehicle: Klucel (hydroxypropylcellulose) (HPC) 103 % of control and 104 % of control | dose: 37.5 mg/kg/injection, schedule: Q01DX009 (ip), vehicle: saline 95 % of control | dose: 50.0 mg/kg/injection, schedule: Q01DX009 (ip), vehicle: Klucel (hydroxypropylcellulose) (HPC) 96 % of control | dose: 50.0 mg/kg/injection, schedule: Q04DX003 (ip), vehicle: Klucel (hydroxypropylcellulose) (HPC) 101 % of control | dose: 100.0 mg/kg/injection, schedule: Q04DX003 (ip), vehicle: Klucel (hydroxypropylcellulose) (HPC) 92 % of control

Cc1ccc(SP(=S)(Sc2ccc(C)cc2)Sc2ccc(C)cc2)cc1
inactive: [1] 97 % of control | [2] 97 % of control | [3] 94 % of control

Nc1nc(N)nc(C(=O)Cc2ccccc2)n1
inactive: dose: 50.0 mg/kg/injection, schedule: Q01DX009 (ip), vehicle: saline with Tween-80 108 % of control | dose: 100.0 mg/kg/injection, schedule: Q01DX009 (ip), vehicle: saline with Tween-80 101 % of control | dose: 200.0 mg/kg/injection, schedule: Q01DX009 (ip), vehicle: saline with Tween-80 94 % of control

Nc1ncnc(N2CCOCC2)n1
inactive: [4] 96 % of control | [5] 107 % of control | [6] 100 % of control

CCN(C(=O)c1ccccc1C)C(c1ccccc1)P(=O)(c1ccccc1)c1ccccc1 (centres undefined)
inactive: dose: 100.0 mg/kg/injection, schedule: Q01DX001 (ip), vehicle: saline with Tween-80 118 % of control | [7] 98 % of control and 100 % of control | dose: 100.0 mg/kg/injection, schedule: Q04DX003 (ip), vehicle: saline with Tween-80 109 % of control and 86 % of control | dose: 200.0 mg/kg/injection, schedule: Q01DX001 (ip), vehicle: saline with Tween-80 100 % of control | [8] 93 % of control and 102 % of control | dose: 200.0 mg/kg/injection, schedule: Q04DX003 (ip), vehicle: saline with Tween-80 94 % of control and 96 % of control | dose: 400.0 mg/kg/injection, schedule: Q01DX001 (ip), vehicle: saline with Tween-80 97 % of control | [9] 93 % of control and 90 % of control | dose: 400.0 mg/kg/injection, schedule: Q04DX003 (ip), vehicle: saline with Tween-80 93 % of control and 112 % of control

COc1c(NC(=O)c2c(Br)c(Br)c(Br)c(Br)c2C(=O)O)cccc1[N+](=O)[O-]
inactive: [10] 94 % of control | [11] 102 % of control | [12] 118 % of control

COc1ccc(C)cc1NC(C)=O
inactive: [13] 98 % of control | [14] 100 % of control | [15] 98 % of control

O=C1C(Cc2ccccc2)C(=O)N(Cc2ccccc2)C(=O)N1Cc1ccccc1
inactive: [4] 88 % of control | [5] 90 % of control | [6] 88 % of control

CCCCCCCCCC(=O)N1C(C)CCC1C (centres undefined)
inactive: dose: 100.0 mg/kg/injection, schedule: Q04DX002 (ip), vehicle: other 103 % of control | dose: 200.0 mg/kg/injection, schedule: Q04DX002 (ip), vehicle: other 107 % of control

CCCCSc1nc(NCC)nc(NCC)n1
inactive: dose: 100.0 mg/kg/injection, schedule: Q04DX002 (sc), vehicle: olive oil, sesame oil, peanut oil 102 % of control | dose: 200.0 mg/kg/injection, schedule: Q04DX002 (sc), vehicle: olive oil, sesame oil, peanut oil 105 % of control | dose: 400.0 mg/kg/injection, schedule: Q04DX002 (sc), vehicle: olive oil, sesame oil, peanut oil 115 % of control

O=Cc1ccc2ccc3cccc4ccc1c2c34
inactive: [7] 98 % of control | [8] 95 % of control | [9] 95 % of control

O=C(CC(CC(=O)c1ccccc1)c1ccccc1)c1ccccc1
inactive: dose: 50.0 mg/kg/injection, schedule: Q01DX001 (ip), vehicle: carboxymethylcellulose (CMC) 91 % of control | [4] 94 % of control | [5] 94 % of control | [6] 94 % of control

CSc1ncnc2c1nnn2C1OC(COC(=O)c2ccccc2)C(OC(=O)c2ccccc2)C1OC(=O)c1ccccc1 (centres undefined)
inactive: dose: 50.0 mg/kg/injection, schedule: Q01DX009 (ip), vehicle: gum acacia 93 % of control | dose: 100.0 mg/kg/injection, schedule: Q01DX001 (ip), vehicle: gum acacia 92 % of control | dose: 100.0 mg/kg/injection, schedule: Q01DX009 (ip), vehicle: gum acacia 89 % of control | dose: 200.0 mg/kg/injection, schedule: Q01DX001 (ip), vehicle: gum acacia 87 % of control

Cc1ccc2c(c1)C(=O)CCS2
inactive: [1] 107 % of control | [2] 100 % of control | [3] 102 % of control

CC(=O)NC1CCC(Cc2ccccc2)CC1 (centres undefined)
inactive: [7] 97 % of control | [8] 90 % of control | [9] 116 % of control

NC(=O)NCCNC(N)=O
inactive: [16] 108 % of control | [17] 97 % of control | [18] 110 % of control | [19] 105 % of control | [20] 108 % of control | [21] 103 % of control

O=C1C=C(C23CC4CC(CC(C4)C2)C3)Nc2ccccc2N1
inactive: [10] 94 % of control | [11] 105 % of control | [12] 94 % of control

Cc1ccc(C)c(NC(=O)Oc2ccc(-c3ccccc3)cc2)c1
inactive: [16] 96 % of control | [17] 109 % of control | [18] 95 % of control | [19] 110 % of control | [20] 95 % of control | [21] 101 % of control

Cn1c(=O)c2[nH]c(C3CC=CCC3)nc2n(C)c1=O (centres undefined)
inactive: dose: 50.0 mg/kg/injection, schedule: Q01DX001 (ip), vehicle: other 97 % of control | dose: 100.0 mg/kg/injection, schedule: Q01DX001 (ip), vehicle: other 95 % of control | dose: 400.0 mg/kg/injection, schedule: Q01DX001 (ip), vehicle: other 94 % of control

COc1ccc2nc3cc(Cl)ccc3c(Nc3ccc(O)c(CNCCO)c3)c2c1
inactive: dose: 75.0 mg/kg/injection, schedule: Q01DX001 (ip), vehicle: carboxymethylcellulose (CMC) 101 % of control

O=S(=O)(c1cc(Br)ccc1O)c1cc(Br)ccc1O
inactive: [13] 97 % of control | dose: 100.0 mg/kg/injection, schedule: Q04DX002 (ip), vehicle: gum acacia 93 % of control | [14] 95 % of control | dose: 200.0 mg/kg/injection, schedule: Q04DX002 (ip), vehicle: gum acacia 93 % of control | [15] 103 % of control | dose: 400.0 mg/kg/injection, schedule: Q04DX002 (ip), vehicle: gum acacia 93 % of control
